Assay results as given in BindingDB's records for PubMed 9223589 (University of Tours, 1997).
Where “and” joins values, the source holds several entries; their conditions need not be identical. Identical values can stand only once.

Experiments:
[1] = target: Norepinephrine transporter (Rattus norvegicus, UniProt Q9JIA2)
[2] = target: Sodium-dependent dopamine transporter (Rattus norvegicus, UniProt P23977)
[3] = target: Sodium-dependent serotonin transporter (Rattus norvegicus, UniProt P31652)
Sequence of Sodium-dependent serotonin transporter (P31652 whole entry): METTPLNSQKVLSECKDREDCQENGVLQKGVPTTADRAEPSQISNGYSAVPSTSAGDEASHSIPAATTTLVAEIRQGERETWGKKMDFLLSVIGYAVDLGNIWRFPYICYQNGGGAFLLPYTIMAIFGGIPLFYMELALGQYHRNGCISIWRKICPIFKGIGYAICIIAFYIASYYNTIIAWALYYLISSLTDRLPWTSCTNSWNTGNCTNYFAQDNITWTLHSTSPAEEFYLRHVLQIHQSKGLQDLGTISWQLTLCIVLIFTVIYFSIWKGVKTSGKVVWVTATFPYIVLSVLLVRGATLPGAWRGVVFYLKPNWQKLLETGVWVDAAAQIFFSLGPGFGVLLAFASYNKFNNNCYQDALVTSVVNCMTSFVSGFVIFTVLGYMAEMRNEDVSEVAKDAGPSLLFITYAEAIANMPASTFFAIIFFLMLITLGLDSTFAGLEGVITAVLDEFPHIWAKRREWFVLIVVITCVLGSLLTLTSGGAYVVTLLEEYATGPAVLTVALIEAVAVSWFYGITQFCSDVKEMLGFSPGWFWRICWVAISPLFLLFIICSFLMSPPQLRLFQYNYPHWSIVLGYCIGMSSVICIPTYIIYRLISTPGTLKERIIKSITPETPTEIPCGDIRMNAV

Sequence of Sodium-dependent dopamine transporter (P23977 whole entry): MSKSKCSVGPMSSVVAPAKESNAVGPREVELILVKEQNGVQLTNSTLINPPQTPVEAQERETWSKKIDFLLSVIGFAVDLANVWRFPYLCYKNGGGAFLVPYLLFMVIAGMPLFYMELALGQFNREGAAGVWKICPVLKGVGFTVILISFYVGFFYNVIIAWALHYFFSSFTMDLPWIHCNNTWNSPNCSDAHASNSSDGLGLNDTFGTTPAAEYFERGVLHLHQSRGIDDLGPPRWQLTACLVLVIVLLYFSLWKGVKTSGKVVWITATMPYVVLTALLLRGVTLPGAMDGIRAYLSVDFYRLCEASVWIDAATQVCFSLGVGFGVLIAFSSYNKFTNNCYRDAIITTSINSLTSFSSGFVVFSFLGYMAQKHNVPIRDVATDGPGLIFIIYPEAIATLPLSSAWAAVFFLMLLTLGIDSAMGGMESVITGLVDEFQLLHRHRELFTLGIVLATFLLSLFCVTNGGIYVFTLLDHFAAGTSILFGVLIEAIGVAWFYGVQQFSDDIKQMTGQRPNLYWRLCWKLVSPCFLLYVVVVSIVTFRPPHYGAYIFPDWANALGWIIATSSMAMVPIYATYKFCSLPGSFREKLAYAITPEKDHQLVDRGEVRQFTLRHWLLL

Structure (SMILES) | Ki [1] [nM] | Ki [2] | Ki [3] [nM]
COC(=O)[C@H]1C(c2ccc(Cl)c(Cl)c2)CC2CCC1N2C/C=C/I (stereo partly drawn) [(2S,8R)-3-(3,4-Dichloro-phenyl)-8-((E)-3-iodo-allyl)-8-aza-bicyclo[3.2.1]octane-2-carboxylic acid methyl ester] | 500 |  | 
O[C@]1(c2ccc(Cl)cc2)c2ccccc2C2=NCCN21 [Mazanor] |  | 50 nM and 12 nM | 
COC(=O)[C@H]1[C@@H](c2ccc(I)cc2)C[C@@H]2CC[C@H]1N2C [RTI 55, (exo,exo)-isomer, Iodine (125) labeled] | 80 | 27.5 nM | 3.1
